Values of other authors as cited in patent US8324158B2, “Methods for inhibiting CLC-2 channel with GATX2” (Georgia Tech Research Corporation, priority 2006, dated 2012).

Target: ClC-1 (Homo sapiens, UniProt P35523)
Sequence (P35523 whole entry, species assumed): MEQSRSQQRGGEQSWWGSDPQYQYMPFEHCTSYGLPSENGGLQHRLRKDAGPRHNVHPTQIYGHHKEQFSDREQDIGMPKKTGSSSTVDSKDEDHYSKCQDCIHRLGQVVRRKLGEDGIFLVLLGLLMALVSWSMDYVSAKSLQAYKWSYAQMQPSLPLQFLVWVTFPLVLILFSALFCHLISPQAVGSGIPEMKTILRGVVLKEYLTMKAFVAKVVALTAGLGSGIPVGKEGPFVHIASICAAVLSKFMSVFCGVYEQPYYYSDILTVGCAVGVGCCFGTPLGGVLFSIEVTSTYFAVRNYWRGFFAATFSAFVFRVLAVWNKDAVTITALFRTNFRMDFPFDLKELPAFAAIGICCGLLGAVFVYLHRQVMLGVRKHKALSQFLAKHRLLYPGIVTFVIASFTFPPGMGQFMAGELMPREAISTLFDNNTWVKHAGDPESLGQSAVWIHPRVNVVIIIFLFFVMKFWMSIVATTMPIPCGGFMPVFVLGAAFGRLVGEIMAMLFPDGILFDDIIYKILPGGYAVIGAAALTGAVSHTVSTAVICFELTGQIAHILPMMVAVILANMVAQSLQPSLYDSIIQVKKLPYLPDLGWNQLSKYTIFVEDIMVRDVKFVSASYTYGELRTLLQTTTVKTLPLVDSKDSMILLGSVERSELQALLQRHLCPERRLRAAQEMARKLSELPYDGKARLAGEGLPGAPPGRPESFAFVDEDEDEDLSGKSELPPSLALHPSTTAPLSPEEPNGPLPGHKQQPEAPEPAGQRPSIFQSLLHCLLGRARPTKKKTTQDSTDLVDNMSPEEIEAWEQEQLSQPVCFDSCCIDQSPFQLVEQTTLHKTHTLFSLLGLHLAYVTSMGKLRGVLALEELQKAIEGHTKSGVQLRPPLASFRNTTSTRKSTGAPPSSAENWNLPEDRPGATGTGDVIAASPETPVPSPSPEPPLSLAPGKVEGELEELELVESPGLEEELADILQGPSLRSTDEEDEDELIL

For CC(Oc1ccc(Cl)cc1)C(=O)O (stereo not shown) [CPP], the Kd is given as 15 µM.
